Laboratory results as given in patent US20080188498A1, “Pyridopyrimidinone compounds with antimalarial activity” (Radix Pharmaceuticals, Inc., priority 2007, published 2008).

Assays:
[1] = system: Plasmodium berghei KBG-173; assay: Blood schizontocidal test, oral dosing, P. berghei in mice; format: in vivo, mouse; details: days 3-5 postinfection
Method: Drugs were mixed in 0.5% hydroxycellulose 0.1% Tween 80 and administered orally b.i.d. on days 3, 4 and 5 postinfection. CD-1 male or female mice, 5 weeks of age, were infected with 5×10^4 parasitized erythrocytes of Plasmodium berghei KBG-173 mm strain. Blood films were taken on day +6 and weekly thereafter until day +60. Parasitemias were calculated and SD90 value (dose suppressing 90% of the parasites in treated groups compared with the infected non-treated controls) on day +6 postinfection. Mortality data was tabulated for 60 days at which time all mice surviving that were blood film negative were considered cured. […]

P. berghei = assay: Suppressive blood schizontocidal test, single subcutaneous dose, P. berghei in mice; format: in vivo, mouse; details: 72 h after infection
Method: Mice were treated with a single dose of the compound administered subcutaneously 72 h. after infection. Number of cures is the number of mice surviving, out of five, 60 days postinfection.

[2] = system: Plasmodium berghei KBG-173; assay: Prophylactic test, oral, P. berghei in mice; format: in vivo, mouse
Source text: Drugs were mixed in 0.5% hydroxycellulose 0.1% Tween 80 and administered orally b.i.d. either on day 5, 4, 3, 2, or 1 prior to the infection or 1 or 2 days postinfection. CD-I male or female mice, 5 weeks of age, were infected with 5×10^4 parasitized erythrocytes of Plasmodium berghei KBG-173 mm strain. Blood films were taken on day +6 and weekly thereafter until day+30. […]

mouse = details: strong liver toxicity; cited from earlier work
[3] = oral dose 0.25 mg/kg/day (total dose 0.75 mg/kg)
[4] = oral dose 1.0 mg/kg/day (total dose 3.0 mg/kg)
[5] = oral dose 4.0 mg/kg/day (total dose 12 mg/kg)
[6] = oral dose 16 mg/kg/day (total dose 48 mg/kg)
[7] = oral dose 64 mg/kg/day (total dose 192 mg/kg)
[8] = single subcutaneous dose 1 mg/kg
[9] = single subcutaneous dose 2 mg/kg
[10] = single subcutaneous dose 4 mg/kg
[11] = single subcutaneous dose 8 mg/kg
[12] = single subcutaneous dose 16 mg/kg
[13] = single subcutaneous dose 32 mg/kg
[14] = single subcutaneous dose 64 mg/kg
[15] = single subcutaneous dose 128 mg/kg
[16] = single dose of 0.5 mg/kg, day of treatment 1
[17] = single dose of 0.5 mg/kg, day of treatment 2
[18] = single dose of 0.5 mg/kg, day of treatment −1
[19] = single dose of 0.5 mg/kg, day of treatment −2

CCN(CC)CCCC(C)Nc1ccnc2cc(Cl)ccc12 (centres unmarked) [Chloroquine, reference compound]
Mice surviving 60 days/Mice infected and treated [1, 3]: 0/7
Mice surviving 60 days/Mice infected and treated [1, 4]: 0/7
Mice surviving 60 days/Mice infected and treated [1, 5]: 2/7
Mice surviving 60 days/Mice infected and treated [1, 6]: 4/7
Mice surviving 60 days/Mice infected and treated [1, 7]: 0/7

O=C(CC1NCCC1O)Cn1cnc2cccnc2c1=O (centres unmarked) [Compound I, 3-[3-(3-Hydroxy-pyrrolidin-2-yl)-2-oxo-propyl]-3H-pyrido[3,2-d]pyrimidin-4-one]
Mice surviving 60 days/Mice infected and treated [1, 3]: 7/7
Mice surviving 60 days/Mice infected and treated [1, 4]: 7/7
Mice surviving 60 days/Mice infected and treated [1, 5]: 7/7
Mice surviving 60 days/Mice infected and treated [1, 6]: 7/7
Mice surviving 60 days/Mice infected and treated [1, 7]: 7/7
Mice surviving 60 days/Mice infected and treated (P. berghei; [8]): 4/5
Mice surviving 60 days/Mice infected and treated (P. berghei; [9]): 5/5
Mice surviving 60 days/Mice infected and treated (P. berghei; [10]): 5/5
Mice surviving 60 days/Mice infected and treated (P. berghei; [11]): 5/5
Mice surviving 60 days/Mice infected and treated (P. berghei; [12]): 5/5
Mice surviving 60 days/Mice infected and treated (P. berghei; [13]): 5/5
Mice surviving 60 days/Mice infected and treated (P. berghei; [14]): 5/5
Mice surviving 60 days/Mice infected and treated (P. berghei; [15]): 5/5
Mice surviving day 60/Mice infected and treated ([2]; oral, day of treatment 1, dose 0.5 mg/kg): 5/5
Mice surviving day 60/Mice infected and treated ([2]; oral, day of treatment 1, dose 2 mg/kg): 5/5
Mice surviving day 60/Mice infected and treated ([2]; oral, day of treatment 1, dose 8 mg/kg): 5/5
Mice surviving day 60/Mice infected and treated ([2]; oral, day of treatment 1, dose 32 mg/kg): 5/5
Mice surviving day 60/Mice infected and treated ([2]; oral, day of treatment 2, dose 0.5 mg/kg): 5/5
Mice surviving day 60/Mice infected and treated ([2]; oral, day of treatment 2, dose 2 mg/kg): 5/5
Mice surviving day 60/Mice infected and treated ([2]; oral, day of treatment 2, dose 8 mg/kg): 5/5
Mice surviving day 60/Mice infected and treated ([2]; oral, day of treatment 2, dose 32 mg/kg): 5/5
Mice surviving day 60/Mice infected and treated ([2]; oral, day of treatment −1, dose 0.5 mg/kg): 5/5
Mice surviving day 60/Mice infected and treated ([2]; oral, day of treatment −1, dose 2 mg/kg): 5/5
Mice surviving day 60/Mice infected and treated ([2]; oral, day of treatment −1, dose 8 mg/kg): 5/5
Mice surviving day 60/Mice infected and treated ([2]; oral, day of treatment −1, dose 32 mg/kg): 5/5
Mice surviving day 60/Mice infected and treated ([2]; oral, day of treatment −2, dose 0.5 mg/kg): 5/5
Mice surviving day 60/Mice infected and treated ([2]; oral, day of treatment −2, dose 2 mg/kg): 5/5
Mice surviving day 60/Mice infected and treated ([2]; oral, day of treatment −2, dose 8 mg/kg): 5/5
Mice surviving day 60/Mice infected and treated ([2]; oral, day of treatment −2, dose 32 mg/kg): 5/5
Mice surviving day 60/Mice infected and treated ([2]; oral, day of treatment −3, dose 0.5 mg/kg): 0/5
Mice surviving day 60/Mice infected and treated ([2]; oral, day of treatment −3, dose 2 mg/kg): 5/5
Mice surviving day 60/Mice infected and treated ([2]; oral, day of treatment −3, dose 8 mg/kg): 5/5
Mice surviving day 60/Mice infected and treated ([2]; oral, day of treatment −3, dose 32 mg/kg): 5/5
Protection from malaria (oral prophylactic activity) ([2]; single dose of 0.5 mg/kg within 2 days preinfection through 2 days post infection): completely protected from malaria

O=C(CC1NCCC1O)Cn1cnc2ccncc2c1=O (centres unmarked) [Compound II, 3-[3-(3-Hydroxy-pyrrolidin-2-yl)-2-oxo-propyl]-3H-pyrido[4,3-d]pyrimidin-4-one]
Mice surviving 60 days/Mice infected and treated [1, 3]: 7/7
Mice surviving 60 days/Mice infected and treated [1, 4]: 7/7
Mice surviving 60 days/Mice infected and treated [1, 5]: 7/7
Mice surviving 60 days/Mice infected and treated [1, 6]: 7/7
Mice surviving 60 days/Mice infected and treated [1, 7]: 7/7
Mice surviving 60 days/Mice infected and treated (P. berghei; [8]): 4/5
Mice surviving 60 days/Mice infected and treated (P. berghei; [9]): 5/5
Mice surviving 60 days/Mice infected and treated (P. berghei; [10]): 5/5
Mice surviving 60 days/Mice infected and treated (P. berghei; [11]): 5/5
Mice surviving 60 days/Mice infected and treated (P. berghei; [12]): 5/5
Mice surviving 60 days/Mice infected and treated (P. berghei; [13]): 5/5
Mice surviving 60 days/Mice infected and treated (P. berghei; [14]): 5/5
Mice surviving 60 days/Mice infected and treated (P. berghei; [15]): 5/5
Mice surviving day 60/Mice infected and treated [2, 16]: 5/5
Mice surviving day 60/Mice infected and treated [2, 17]: 5/5
Mice surviving day 60/Mice infected and treated [2, 18]: 5/5
Mice surviving day 60/Mice infected and treated [2, 19]: 5/5

O=C(CC1NCCC1O)Cn1cnc2cccc(F)c2c1=O (centres unmarked) [Compound III, 5-Fluoro-3-[3-(3-hydroxy-pyrrolidin-2-yl)-2-oxo-propyl]-3H-quinazolin-4-one]
Mice surviving 60 days/Mice infected and treated [1, 3]: 5/7
Mice surviving 60 days/Mice infected and treated [1, 4]: 6/7
Mice surviving 60 days/Mice infected and treated [1, 5]: 7/7
Mice surviving 60 days/Mice infected and treated [1, 6]: 7/7
Mice surviving 60 days/Mice infected and treated [1, 7]: 7/7
Mice surviving 60 days/Mice infected and treated (P. berghei; [8]): 4/5
Mice surviving 60 days/Mice infected and treated (P. berghei; [9]): 5/5
Mice surviving 60 days/Mice infected and treated (P. berghei; [10]): 5/5
Mice surviving 60 days/Mice infected and treated (P. berghei; [11]): 5/5
Mice surviving 60 days/Mice infected and treated (P. berghei; [12]): 5/5
Mice surviving 60 days/Mice infected and treated (P. berghei; [13]): 5/5
Mice surviving 60 days/Mice infected and treated (P. berghei; [14]): 5/5
Mice surviving 60 days/Mice infected and treated (P. berghei; [15]): 5/5
Mice surviving day 60/Mice infected and treated [2, 16]: 5/5
Mice surviving day 60/Mice infected and treated [2, 17]: 5/5
Mice surviving day 60/Mice infected and treated [2, 18]: 5/5
Mice surviving day 60/Mice infected and treated [2, 19]: 5/5

O=C(CC1NCCC1O)Cn1cnc2ccc(F)c(F)c2c1=O (centres unmarked) [Compound IV, 5,6-Difluoro-3-[3-(3-hydroxy-pyrrolidin-2-yl)-2-oxo-propyl]-3H-quinazolin-4-one]
Mice surviving 60 days/Mice infected and treated [1, 3]: 6/7
Mice surviving 60 days/Mice infected and treated [1, 4]: 7/7
Mice surviving 60 days/Mice infected and treated [1, 5]: 7/7
Mice surviving 60 days/Mice infected and treated [1, 6]: 7/7
Mice surviving 60 days/Mice infected and treated [1, 7]: 7/7
Mice surviving 60 days/Mice infected and treated (P. berghei; [8]): 4/5
Mice surviving 60 days/Mice infected and treated (P. berghei; [9]): 5/5
Mice surviving 60 days/Mice infected and treated (P. berghei; [10]): 5/5
Mice surviving 60 days/Mice infected and treated (P. berghei; [11]): 5/5
Mice surviving 60 days/Mice infected and treated (P. berghei; [12]): 5/5
Mice surviving 60 days/Mice infected and treated (P. berghei; [13]): 5/5
Mice surviving 60 days/Mice infected and treated (P. berghei; [14]): 5/5
Mice surviving 60 days/Mice infected and treated (P. berghei; [15]): 5/5
Mice surviving day 60/Mice infected and treated [2, 16]: 5/5
Mice surviving day 60/Mice infected and treated [2, 17]: 5/5
Mice surviving day 60/Mice infected and treated [2, 18]: 5/5
Mice surviving day 60/Mice infected and treated [2, 19]: 5/5

O=C(CC1NCCC1O)Cn1cnc2cccc(C(F)(F)F)c2c1=O (centres unmarked) [Compound V, 3-[3-(3-Hydroxy-pyrrolidin-2-yl)-2-oxo-propyl]-5-trifluoromethyl-3H-quinazolin-4-one]
Mice surviving 60 days/Mice infected and treated [1, 3]: 7/7
Mice surviving 60 days/Mice infected and treated [1, 4]: 7/7
Mice surviving 60 days/Mice infected and treated [1, 5]: 7/7
Mice surviving 60 days/Mice infected and treated [1, 6]: 7/7
Mice surviving 60 days/Mice infected and treated [1, 7]: 7/7
Mice surviving 60 days/Mice infected and treated (P. berghei; [8]): 4/5
Mice surviving 60 days/Mice infected and treated (P. berghei; [9]): 5/5
Mice surviving 60 days/Mice infected and treated (P. berghei; [10]): 5/5
Mice surviving 60 days/Mice infected and treated (P. berghei; [11]): 5/5
Mice surviving 60 days/Mice infected and treated (P. berghei; [12]): 5/5
Mice surviving 60 days/Mice infected and treated (P. berghei; [13]): 5/5
Mice surviving 60 days/Mice infected and treated (P. berghei; [14]): 5/5
Mice surviving 60 days/Mice infected and treated (P. berghei; [15]): 5/5
Mice surviving day 60/Mice infected and treated [2, 16]: 5/5
Mice surviving day 60/Mice infected and treated [2, 17]: 5/5
Mice surviving day 60/Mice infected and treated [2, 18]: 5/5
Mice surviving day 60/Mice infected and treated [2, 19]: 5/5

O=C(C[C@H]1NCCC[C@@H]1O)Cn1cnc2ccccc2c1=O [Febrifugine, reference compound]
Mice surviving 60 days/Mice infected and treated [1, 3]: 1/7
Mice surviving 60 days/Mice infected and treated [1, 4]: 2/7
Mice surviving 60 days/Mice infected and treated [1, 5]: 5/7
Mice surviving 60 days/Mice infected and treated [1, 6]: 0/7
Mice surviving 60 days/Mice infected and treated [1, 7]: 0/7
Dosage at which mouse toxic death occurred (mouse): 10 mg/kg/day
